{"source": "patent US20060110385A1", "about": "“Means and methods for diagnosing and treating affective disorders” (Affectis Pharmaceuticals AG, priority 2003, published 2006)", "key": {"P2X7R [1]": {"molecular_target": "T1, P2X7R (Rattus norvegicus, UniProt Q64663)", "T1 sequence (Q64663 1-595)": "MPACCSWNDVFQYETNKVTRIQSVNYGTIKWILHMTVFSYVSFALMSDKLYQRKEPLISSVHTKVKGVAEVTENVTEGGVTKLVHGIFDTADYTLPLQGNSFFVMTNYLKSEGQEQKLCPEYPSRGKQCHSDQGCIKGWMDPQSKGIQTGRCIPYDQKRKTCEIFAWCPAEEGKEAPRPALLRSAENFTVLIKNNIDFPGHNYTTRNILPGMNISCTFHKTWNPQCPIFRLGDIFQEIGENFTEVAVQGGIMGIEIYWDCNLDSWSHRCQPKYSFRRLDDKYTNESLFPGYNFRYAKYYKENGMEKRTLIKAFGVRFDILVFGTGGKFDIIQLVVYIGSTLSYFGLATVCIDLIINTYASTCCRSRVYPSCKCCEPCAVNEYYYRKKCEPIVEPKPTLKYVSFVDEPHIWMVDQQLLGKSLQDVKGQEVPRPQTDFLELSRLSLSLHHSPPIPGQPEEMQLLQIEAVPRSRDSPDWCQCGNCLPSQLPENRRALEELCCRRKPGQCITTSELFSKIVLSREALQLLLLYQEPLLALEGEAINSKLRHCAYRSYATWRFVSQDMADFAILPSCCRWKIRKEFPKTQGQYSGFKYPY", "conditions": "concentrations of 10 to 300 μM; cited from earlier work"}, "P2X7R [2]": {"molecular_target": "T2, P2X7R (Homo sapiens, UniProt Q99572)", "T2 sequence (Q99572 1-595)": "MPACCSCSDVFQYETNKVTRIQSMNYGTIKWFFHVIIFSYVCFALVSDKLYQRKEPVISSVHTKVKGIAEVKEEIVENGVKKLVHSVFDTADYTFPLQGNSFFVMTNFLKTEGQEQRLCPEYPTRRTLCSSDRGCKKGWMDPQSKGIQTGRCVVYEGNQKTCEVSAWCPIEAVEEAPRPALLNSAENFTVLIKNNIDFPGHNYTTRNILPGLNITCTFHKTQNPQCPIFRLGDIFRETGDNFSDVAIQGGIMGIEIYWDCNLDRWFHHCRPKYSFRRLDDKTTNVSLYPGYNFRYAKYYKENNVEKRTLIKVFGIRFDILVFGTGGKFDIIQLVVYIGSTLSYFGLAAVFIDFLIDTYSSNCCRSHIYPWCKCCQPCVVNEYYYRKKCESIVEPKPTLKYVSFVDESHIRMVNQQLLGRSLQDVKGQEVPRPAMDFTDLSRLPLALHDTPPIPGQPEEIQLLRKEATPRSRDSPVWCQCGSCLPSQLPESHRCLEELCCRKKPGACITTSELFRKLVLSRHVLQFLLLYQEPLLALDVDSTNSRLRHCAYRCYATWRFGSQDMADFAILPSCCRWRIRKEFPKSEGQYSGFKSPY", "conditions": "dose response curve, Y-axis ion current; cited from earlier work"}, "P2X7R [3]": {"system": "P2X7R", "conditions": "cited from earlier work"}, "DBA/201a mice": {"system": "DBA/201a mice", "assay": "Porsolt's forced swim test after intrahippocampal P2X7R antagonists", "format": "in vivo, mouse", "conditions": "100 nM KN-62 or 10 μM oATP, 1 μl each side, dentate gyrus, 24 hours after injection", "from_the_text": "In the present example, the P2X7R antagonists were directly injected into the dentate gyrus region of the hippocampus. Briefly, three months old male mice were bilaterally implanted with guide cannulae (23 gauge, length 8 mm) by means of a stereotactic instrument (David Kopf Instruments). The coordinates, in relation to bregma, were −1.5 mm posterior, ±1.0 mm lateral, and −0.8 mm ventral. Mice were allowed to recover for 10 to 13 days after surgery. Following this recovery period, mice were injected with 1 μl vehicle solution (0.01% DMSO, Sigma), or 100 nM KN-62 (Sigma, prepared in 0.01% DMSO), or 10 μM oATP (Sigma, prepared in PBS) in each side of the brain over a period of 60 seconds. All injections were performed using a 9 mm-31 gauge needle inserted into the guide cannulae and connected via tubing to a 10 μl Hamilton syringe.\nThe behaviour of individual mice was assessed using the Porsolt's forced swim test 24 hours after injection of vehicle solution, KN-62, or oATP. A pre-exposure of 5 minutes to the test was performed 15-17 minutes after administration of vehicle, KN-62, or oATP. A description of the Porsolt's forced swim test is given in example 9. […] Observed results were verified statistically using one-way MANOVA test."}, "mice [4]": {"system": "mice", "assay": "Porsolt's forced swim test after long-term paroxetine", "format": "in vivo, mouse", "conditions": "paroxetine 10 mg/kg twice per day by gavage, 28 days, male mice", "experimental": "Further validation of role of P2X7R in affective disorders was performed by examining its expression pattern in response to stress and treatment with antidepressant drugs. […] In parallel, a control group of mice was given vehicle solution (i.e. without paroxetine) using the same treatment regiment while a second control group of mice was left undisturbed and stress-free (i.e. untreated) during the same period of the experiments. At the end of the long-term treatment, part of the mice of each experimental group were tested in the dark/light box (test of anxiety behaviour) and in the Porsolt's forced swim test (test of depressive-like behaviour) to confirm the effectiveness of the treatment (FIG. 5). […] The other part of the experimental groups (i.e. mice without test experience) were decapitated, brains rapidly removed and frozen at −80° C. until usage."}, "P2X7R [5]": {"molecular_target": "T2, P2X7R", "assay": "Calcium entry (Fluo-4 AM) in HT-22 cells overexpressing human P2X7R", "format": "cell-based", "set-up": "expressed in transfected cells", "conditions": "20 μM BzATP or 50 μM tenidap", "from_the_text": "Yet another method for identifying P2X7R agonists was devised by generating a immortalised mouse cell line that overexpresses the human P2X7R gene under the control of the human cytomegalovirus (CMV) early promoter/enhancer region. The human P2X7R cDNA was inserted into the pcDNA3.1 vector (Invitrogen) and transfected into the mouse hippocampal cell line HT-22 using Lipofectamine (Invitrogen) according to the manufacturer's specifications. One day after transfection, culture medium containing 500 μg/ml G418 was added to the cells. Resistant clones were separately isolated and cultured 14 days after applying the selection medium.\nThe agonistic activity of a compound was evaluated by measuring calcium entry in the cells that overexpress the human P2X7R. Cells were cultured in 96 well plates and incubated at 37° C. with 5% CO2 DMEM with 10% foetal calf serum (Gibco) until they reached confluence. Cells were then loaded for one hour with 10 μM of Fluo-4 AM (Molecular Probes). Fluo-4 AM is a fluorescent dye that binds to intracellular calcium. […] Agonist activity was detected by measuring an increase in calcium influx which results in increased binding to Fluo-4 AM and increased fluorescence. Changes in fluorescence signal are measured using a Fluostar Optima plate reader (BMG biotech). […] Thus, both compound stimulated the activity of P2X7R which results in an influx of ions into the cells."}, "P2X7R [6]": {"system": "P2X7R", "assay": "P2X7R protein expression by immunohistochemistry after siRNA injection", "format": "in vivo, mouse", "from_the_text": "At the end of the experiment, the mice were sacrificed and the brains were examined to confirm the location and efficiency of the siRNA injections. For this purpose the brains were cut into sections and the slides were stained by immunohistochemistry using the above mentioned protocols. Brains from mice injected with the specific double stranded siRNA, with control double stranded RNA and with vehicle were examined in parallel. Under these conditions, the specific siRNA directed against P2X7R injected near the dentate gyrus induced on average an 80% inhibition of P2X7R protein expression as compared to the samples from mice injected with vehicle or with control double stranded RNA. […] This inhibition produced behavioural changes indicating a causative role for P2X7R in affective disorders."}, "mice [7]": {"system": "mice", "assay": "Porsolt's forced swim test after intrahippocampal siRNA", "format": "in vivo, mouse", "conditions": "0.1 nmol/μl, 1 μl per side, dentate gyrus, 24 hours and 48 hours after infusion", "from_the_text": "According to the observed expression pattern of P2X7R in the hippocampus (FIGS. 9, 10, and 11) and the known involvement of the hippocampus in depression, the dentate gyrus (hippocampus) was selected as target region for siRNA application. Male, naive mice were bilaterally implanted with a guide cannulae (23 gauge, length 8 mm) by means of a stereotactic instrument. The coordinates, in relation to bregma, were −2.0 mm posterior, ±1.0 mm lateral, and −1.0 mm ventral. Following a recovery period of 5 days, the mice were divided into three experimental groups: vehicle (veh), control double stranded RNA (control), and P2X7R specific double stranded siRNA (siRNA). Sequences used for P2X7R siRNA are 5′-[…]-3′ and 5′-[…]-3′. Both sequences and were annealed and injected together as a double stranded RNA. On day 6 after surgery, mice were slightly anaesthetized with Isofluran and injections of siRNA were carried out. […]\nThe effects of P2X7R inhibition on depressive-like behaviour was assessed 24 hours and 48 hours after infusion of siRNA, control or vehicle according to the standard test paradigm, the Porsolt's forced swim test (Porsolt et al., Arch. Int. Pharmacodym. 229 (1977), 327-336; Porsolt, Rev. Neurosci. 11 (2000), 53-58). […] Compared to vehicle application, no influence of control double stranded RNA (5′-[…]-3′) on floating behaviour (passive stress coping) was detected. […]"}}, "data": [{"molecule": "CC(C)NCC(O)COc1cccc2ccccc12", "note": "(racemic) [DL-propanolol]", "values": [{"measurement": "opening of the cation channel activity of P2X7R", "setting": "P2X7R [1]", "result": "without affecting the opening of the cation channel activity of P2X7R"}, {"measurement": "pore-forming activity of P2X7R", "setting": "P2X7R [1]", "result": "inhibit the pore-forming activity of P2X7R"}]}, {"molecule": "Nc1ncnc2c1ncn2[C@@H]1O[C@H](COP(=O)(O)OP(=O)(O)OP(=O)(O)O)[C@@H](O)[C@H]1O", "note": "[ATP]", "values": [{"measurement": "EC50", "setting": "P2X7R [2]", "result": 300, "unit": "µM"}, {"measurement": "levels of ATP required to achieve activation", "setting": "P2X7R [3]", "result": "> 1", "unit": "mM"}]}, {"molecule": "CC(C)NC[C@@H](O)COc1cccc2ccccc12", "note": "[D-propanolol]", "values": [{"measurement": "opening of the cation channel activity of P2X7R", "setting": "P2X7R [1]", "result": "without affecting the opening of the cation channel activity of P2X7R"}, {"measurement": "pore-forming activity of P2X7R", "setting": "P2X7R [1]", "result": "inhibit the pore-forming activity of P2X7R"}]}, {"molecule": "CN([C@@H](Cc1ccc(OS(=O)(=O)c2cccc3cnccc23)cc1)C(=O)N1CCN(c2ccccc2)CC1)S(=O)(=O)c1cccc2cnccc12", "note": "[KN-62, 1-(N,O-bis[5-isoquinolinesulphonyl]-N-methyl-L-tyrosyl)-4-phenylpiperazine]", "values": [{"measurement": "active escape attempts (time, frequency, latency of struggling)", "setting": "DBA/201a mice", "result": "no changes"}, {"measurement": "passive behaviour (time, frequency, latency of floating)", "setting": "DBA/201a mice", "result": "no changes"}]}, {"molecule": "CC(CCc1ccccc1)NCC(O)c1ccc(O)c(C(N)=O)c1", "note": "(stereo not shown) [labetolol]", "values": [{"measurement": "opening of the cation channel activity of P2X7R", "setting": "P2X7R [1]", "result": "without affecting the opening of the cation channel activity of P2X7R"}, {"measurement": "pore-forming activity of P2X7R", "setting": "P2X7R [1]", "result": "inhibit the pore-forming activity of P2X7R"}]}, {"molecule": "Fc1ccc([C@@H]2CCNC[C@H]2COc2ccc3c(c2)OCO3)cc1", "note": "[paroxetine]", "values": [{"measurement": "passive stress coping behaviour (floating) in the forced swim test", "setting": "mice [4]", "result": "decreased"}]}, {"molecule": "NC(=O)N1C(=O)/C(=C(\\O)c2cccs2)c2cc(Cl)ccc21", "note": "[tenidap, 5-chloro-2,3-dihydro-2-oxo-3-(2-thienylcarbonyl)-indole-1-carboxamide]", "values": [{"measurement": "fluorescence intensity (calcium influx, Fluo-4 AM)", "setting": "P2X7R [5]", "result": "rapid increase in fluorescence intensity"}]}, {"molecule": "P2X7R specific siRNA: double stranded siRNA, 5′-GUGGGUCUUGCACAUGAUCTT-3′ annealed with 5′-GAUCAUGUGCAAGACCCACTT-3′ (chemistry not given here)", "values": [{"measurement": "inhibition of P2X7R protein expression", "setting": "P2X7R [6]; injected near the dentate gyrus, compared to vehicle or control double stranded RNA", "result": 80, "unit": "%"}, {"measurement": "local inflammation or infiltration at the hippocampus", "setting": "P2X7R [6]; intrahippocampal injection", "result": "did not produce any sign of local inflammation or infiltration"}, {"measurement": "passive (floating) behaviour in the forced swim test", "setting": "mice [7]", "result": "significant increase in passive behaviour"}, {"measurement": "passive (floating) behaviour in the forced swim test", "setting": "mice [7]; listed as siRNA targeting P2X7R", "result": "increased"}]}]}
